Test results from PMC12343752, “Functional and structural insights into a thermostable (S)-selective amine transaminase and its improved substrate scope by protein engineering” (Applied Microbiology and Biotechnology, 2025).

Key:
Sbv333-ATA = target: T1, Sbv333-ATA (Streptomyces odorifer, UniProt A0A7Y6F089); assay: glycine oxidase (GO) coupled assay; acetophenone formation at […] nm; type: biochemical; details: 2 mM amine, 50 mM HEPES pH 9.0, room temperature (GO assay)
T1 construct: gene G6W59_16020; 6xHis-tagged, pETite vector, E. coli BL21(DE3) with GroES/GroEL, Ni-NTA (plus SEC for crystals); residues 1-459 described; dimer about 100 kDa by gel filtration; catalytic Lys289

[1] = target: Sbv333-ATA, (S)-selective amine transaminase from a Streptomyces strain (Streptomyces sp.); assay: SEC; analytical gel filtration, single peak; methods describe a calibrated Superdex 200 pg HiLoad 16/600 column, 20 mM HEPES pH 9.0, 500 mM NaCl

T1 sequence (A0A7Y6F089 entry or part of it): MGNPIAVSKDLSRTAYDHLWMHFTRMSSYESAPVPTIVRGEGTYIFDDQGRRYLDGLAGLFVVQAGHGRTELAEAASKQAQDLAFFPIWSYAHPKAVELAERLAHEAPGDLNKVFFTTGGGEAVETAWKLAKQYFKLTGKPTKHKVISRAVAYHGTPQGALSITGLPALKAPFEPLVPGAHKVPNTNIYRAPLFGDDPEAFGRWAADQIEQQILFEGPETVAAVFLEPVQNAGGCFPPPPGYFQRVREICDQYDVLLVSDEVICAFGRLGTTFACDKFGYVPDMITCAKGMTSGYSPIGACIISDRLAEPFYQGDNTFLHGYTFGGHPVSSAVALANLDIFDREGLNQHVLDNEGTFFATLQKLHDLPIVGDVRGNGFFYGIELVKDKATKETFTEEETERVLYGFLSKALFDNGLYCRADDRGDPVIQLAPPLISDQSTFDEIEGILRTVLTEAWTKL

stoichiometry N [1]	Compound	glycine oxidase (GO) coupled assay; acetophenone formation at 245 nm (Sbv333-ATA)
	C[C@H](N)c1ccccc1 [compound 1, (S)-methylbenzylamine]	The enzyme was active toward a diverse set of substrates, including (S)-methylbenzylamine ((S)-1)
2	Sbv333-ATA, (S)-selective amine transaminase from a Streptomyces strain (enzyme)	
